According to patent publication US12692264B2, “Pyrimidine or pyridine derivative, preparation method therefor, and application thereof in pharmacy” (ABBISKO THERAPEUTICS CO., LTD., priority 2021, dated 2026):

Molecular target: Ba/F3 EGFR-D770-N771ins_SVD (Homo sapiens, UniProt P00533, DUP768-770, cells depend on it)
Assay: Cell proliferation study (CellTiter-Glo, 72 hrs), Ba/F3 EGFR-D770-N771ins_SVD
Assay type: cell-based
Conditions: CTG, * = average of multiple measurements, read-out: Ba/F3 EGFR-D770-N771ins_SVD IC50
Experimental: (I) Reagents and Materials
• Fetal bovine serum FBS (GBICO, Cat #10099-141); • CellTiter-Glo® luminescent cell viability assay kit (Promega, Cat #G7572); • Black transparent flat-bottom 96-well plate (Corning®, Cat #3603). (II) Instruments • SpectraMax multi-label microplate reader MD, 2104-0010A; • Carbon dioxide incubator, Thermo Scientific 3100 series; • Biological safety cabinet, Thermo Scientific, 1300 series model A2; • Inverted microscope, Olympus, CKX41SF; • Siemens refrigerator KK25E76T1. (III) Cell Lines and Culture Conditions
(IV) Experimental Procedures 1. Cell Culture and Inoculation: • (1) Cells in the logarithmic growth phase were harvested and counted using a […]. The cell viability was determined by the trypan blue dye exclusion method to ensure cell viability above 90%. • (2) The cell concentration was adjusted to reach a desired final density; 90 μL of cell suspension was added to a 96-well plate. • (3) The cells were incubated overnight in the 96-well plate at 37° C., 5% CO2 and with 95% humidity. 2. T0 Benchmark Data: • (1) 10 μL of PBS was added to each well of the TO plate containing the cells. • (2) The CTG reagent was thawed and the cell plate was equilibrated to room temperature for 30 min. • (3) An equal volume of CTG solution was added to each well. • (4) The cells were lysed by shaking on an orbital shaker for 5 min. • (5) The cell plate was left to stand at room temperature for 20 min to stabilize the fluorescence signal. • (6) The fluorescence signal values of TO were read. 3. Dilution and Addition of Compounds • (1) According to the compound information table, a corresponding volume of DMSO was added to the corresponding compound powder to prepare a 10 mM stock solution. • (2) A 1000-fold, 3.16-fold-diluted compound solution was prepared. • (3) The 1000× diluted compound solution was diluted 100-fold with PBS to prepare a 10-fold compound solution with a maximum concentration of 10 μM, including 9 concentrations, with 3.16-fold dilution, and 10 μL of the medicament solution was added to each well of the 96-well plate to seed the cells. Triplicate wells were set for each compound concentration, with a final concentration of DMSO being 0.1%. • (4) The cells were placed in the 96-well plate containing the medicament at 37° C., 5% CO2 and with 95% humidity, and cultured for 72 hrs before CTG analysis. 4. Fluorescence Signal Reading • (1) The CTG reagent was thawed and the cell plate was equilibrated to room temperature for 30 min. • (2) An equal volume of CTG solution was added to each well. • (3) The cells were lysed by shaking on an orbital shaker for 5 min. • (4) The cell plate was left to stand at room temperature for 20 min to stabilize the fluorescence signal. • (5) The fluorescence values were read. 5. Data Processing
Data were analyzed using GraphPad Prism 7.0 software and fitted data were regressed using non-linear S-curves to obtain dose-response curves from which IC50 values (in nM) were calculated.

Chain of Ba/F3 EGFR-D770-N771ins_SVD (P00533 with tags, fused parts or gaps DUP768-770): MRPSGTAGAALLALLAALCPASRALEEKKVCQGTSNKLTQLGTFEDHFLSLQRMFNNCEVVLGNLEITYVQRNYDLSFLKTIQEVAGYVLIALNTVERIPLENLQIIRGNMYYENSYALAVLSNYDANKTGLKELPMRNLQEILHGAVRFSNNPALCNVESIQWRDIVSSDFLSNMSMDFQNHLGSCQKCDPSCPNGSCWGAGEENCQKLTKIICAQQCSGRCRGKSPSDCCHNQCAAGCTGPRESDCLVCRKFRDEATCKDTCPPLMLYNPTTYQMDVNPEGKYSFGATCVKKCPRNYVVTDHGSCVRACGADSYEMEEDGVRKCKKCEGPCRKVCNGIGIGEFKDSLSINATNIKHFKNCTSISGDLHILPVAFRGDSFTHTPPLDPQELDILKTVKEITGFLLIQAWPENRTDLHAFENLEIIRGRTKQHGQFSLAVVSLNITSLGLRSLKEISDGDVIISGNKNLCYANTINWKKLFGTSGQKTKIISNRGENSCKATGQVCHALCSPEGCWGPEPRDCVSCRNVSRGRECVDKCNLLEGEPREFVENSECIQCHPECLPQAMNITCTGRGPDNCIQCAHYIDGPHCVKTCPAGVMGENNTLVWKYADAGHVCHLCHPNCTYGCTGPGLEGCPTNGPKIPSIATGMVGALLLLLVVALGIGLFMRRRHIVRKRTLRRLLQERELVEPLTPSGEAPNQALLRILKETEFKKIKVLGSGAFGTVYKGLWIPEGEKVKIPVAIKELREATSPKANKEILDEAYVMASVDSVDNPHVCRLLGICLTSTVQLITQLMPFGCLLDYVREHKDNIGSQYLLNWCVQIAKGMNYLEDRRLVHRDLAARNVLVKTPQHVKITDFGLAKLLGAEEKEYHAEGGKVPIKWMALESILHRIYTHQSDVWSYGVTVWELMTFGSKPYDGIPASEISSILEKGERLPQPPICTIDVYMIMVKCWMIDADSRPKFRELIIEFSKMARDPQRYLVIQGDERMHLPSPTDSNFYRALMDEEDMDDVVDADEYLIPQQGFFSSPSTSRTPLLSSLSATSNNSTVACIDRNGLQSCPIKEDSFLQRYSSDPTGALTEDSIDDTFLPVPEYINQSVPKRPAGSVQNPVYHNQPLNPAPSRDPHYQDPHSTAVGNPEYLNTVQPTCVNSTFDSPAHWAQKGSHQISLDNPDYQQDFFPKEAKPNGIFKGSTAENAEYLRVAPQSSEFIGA

SMILES | GI50
C=CC(=O)Nc1cc(Nc2ncc(C(=O)OC(C)C)c(N3CC(C)(C)c4nc(C)ccc43)n2)c(OC)cc1N1CC[C@H](N(C)C)C1 [Example 13, isopropyl (S)-2-((5-acrylamido-4-(3-(dimethyl-amino)pyrrolidin-1-yl)-2-methoxy-phenyl)amino)-4-(3,3,5-trimethyl-2,3-dihydro-1H-pyrrolo[3,2-b]pyridin-1-yl)pyrimidine-5-carboxylate] | 78.3 nM
C=CC(=O)Nc1cc(Nc2ncc(C(=O)OC(C)C)c(N3CC(C)(C)c4nc(C(=C)C)ccc43)n2)c(OC)cc1N(C)CCN(C)C [Example 14, isopropyl 2-((5-acrylamido-4-((2-(dimethylami-no)ethyl)(methyl)amino)-2-methoxy-phenyl)amino)-4-(3,3-dimethyl-5-(prop-1-en-2-yl)-2,3-dihydro-1H-pyrrolo[3,2-b]pyridin-1-yl)pyrimidine-5-carboxylate] | 39 nM
C=CC(=O)Nc1cc(Nc2ncc(C(=O)OC(C)C)c(N3CC(C)(C)c4nc(C(C)C)ccc43)n2)c(OC)cc1N(C)CCN(C)C [Example 16, isopropyl 2-((5-acrylamido-4-((2-(dimethylami-no)ethyl)(methyl)amino)-2-methoxy-phenyl)amino)-4-(5-isopropyl-3,3-dimethyl-2,3-dihydro-1H-pyrrolo[3,2-b]pyridin-1-yl)pyrimidine-5-carboxylate] | 309 nM
C=CC(=O)Nc1cc(Nc2ncc(C(=O)OC(C)C)c(N3CC(C)(C)c4nc(C(F)(F)F)ccc43)n2)c(OC)cc1N(C)CCN(C)C [Example 17, isopropyl 2-((5-acrylamido-4-((2-(dimethylami-no)ethyl)(methyl)amino)-2-methoxy-phenyl)amino)-4-(3,3-dimethyl-5-(trifluoromethyl)-2,3-dibydro-1H-pyrrolo[3,2-b]pyridin-1-yl)pyrimidine-5-carboxylate] | 135 nM
C=CC(=O)Nc1cc(Nc2ncc(C(=O)OC(C)C)c(N3CC(C)(C)c4nc(C#CC5CC5)ccc43)n2)c(OC)cc1N(C)CCN(C)C [Example 18, isopropyl 2-((5-acrylamido-4-((2-(dimethylami-no)ethyl)(methyl)amino)-2-methoxy-phenyl)amino)-4-(5-(cyclo-propylethynyl)-3,3-dimethyl-2,3-dihydro-1H-pyrrolo[3,2-b]pyridin-1-yl)pyrimidine-5-carboxylate] | 50.8 nM
C=CC(=O)Nc1cc(Nc2ncc(C(=O)OC(C)C)c(N3CC(C)(C)c4nc(C#CC(C)C)ccc43)n2)c(OC)cc1N(C)CCN(C)C [Example 19, isopropyl 2-((5-acrylamido-4-((2-(dimethylami-no)ethyl)(methyl)amino)-2-methoxy-phenyl)amino)-4-(3,3-dimethyl-5-(3-methylbut-1-yn-1-yl)-2,3-dihydro-1H-pyrrolo[3,2-b]pyridin-1-yl)pyrimidine-5-carboxylate] | 119 nM
C=CC(=O)Nc1cc(Nc2ncc(C(=O)OC(C)C)c(N3CC(C)(C)c4nc(C#N)ccc43)n2)c(OC)cc1N(C)CCN(C)C [Example 23, isopropyl 2-((5-acrylamido-4-((2-(dimethylami-no)ethyl)(methyl)amino)-2-methoxy-phenyl)amino)-4-(5-cyano-3,3-dimethyl-2,3-dihydro-1H-pyrrolo[3,2-b]pyridin-1-yl)pyrimidine-5-carboxylate] | 92.2 nM
C=CC(=O)Nc1cc(Nc2ncc(C(=O)OC(C)C)c(N3CC4(CC(F)(F)C4)c4nc(C)ccc43)n2)c(OC)cc1N(C)CCN(C)C [Example 24, isopropyl 2-((5-acrylamido-4-((2-(dimethylami-no)ethyl)(methyl)amino)-2-methoxy-phenyl)amino)-4-(3,3-difluoro-5′-methylspiro(cyclobutane-1,3′-pyrrolo[3,2-b]pyridin)-1′(2′H)-yl)pyrimidine-5-carboxylate] | 111 nM
C=CC(=O)Nc1cc(Nc2ncc(C(=O)OC(C)C)c(N3CC(C)(C)c4nc(C)ccc43)n2)c(OC(C)C)cc1N(C)CCN(C)C [Example 28, isopropyl 2-((5-acrylamido-4-((2-(dimethylami-no)ethyl)(methyl)amino)-2-isopropoxy-phenyl)amino)-4-(3,3,5-trimethyl-2,3-dihydro-1H-pyrrolo[3,2-b]pyridin-1-yl)pyrimidine-5-carboxylate] | 204 nM
C=CC(=O)Nc1cc(Nc2ncc(C(=O)OC(C)C)c(N3CC(C)(C)c4nc(C)ccc43)n2)c(OC2CC2)cc1N(C)CCN(C)C [Example 32, isopropyl 2-((5-acrylamido-2-cyclopropoxy-4-((2-(dimethylamino)ethyl)(methyl)ami-no)phenyl)amino)-4-(3,3,5-trimethyl-2,3-dihydro-1H-pyrrolo[3,2-b]pyridin-1-yl)pyrimidine-5-carboxylate] | 44.4 nM
C=CC(=O)Nc1cc(Nc2ncc(C(=O)OC(C)C)c(N3CC(C)(C)c4nc(C)ccc43)n2)c(OC)cc1N1CCN(C)CC1 [Example 33, isopropyl 2-((5-acrylamido-2-methoxy-4-(4-methylpiperazin-1-yl)phenyl)amino)-4-(3,3,5-trimethyl-2,3-dihydro-1H-pyrrolo[3,2-b]pyridin-1-yl)pyrimidine-5-carboxylate] | 503 nM
C=CC(=O)Nc1cc(Nc2ncc(C(=O)OC(C)C)c(N3CC(C)(C)c4nc(C)ccc43)n2)c(OC)cc1N1CCN(CC)CC1 [Example 34, isopropyl 2-((5-acrylamido-4-(4-ethylpiperazin-1-yl)-2-methoxyphenyl)amino)-4-(3,3,5-trimethyl-2,3-dihydro-1H-pyrrolo[3,2-b]pyridin-1-yl)pyrimidine-5-carboxylate] | 443 nM
C=CC(=O)Nc1cc(Nc2ncc(C(=O)OC(C)C)c(N3CC(C)(C)c4nc(C)ccc43)n2)c(OCC)cc1N(C)CCN(C)C [Example 37, isopropyl 2-((5-acrylamido-4-((2-(dimethylami-no)ethyl)(methyl)amino)-2-ethoxy-phenyl)amino)-4-(3,3,5-trimethyl-2,3-dihydro-1H-pyrrolo[3,2-b]pyridin-1-yl)pyrimidine-5-carboxylate] | 72.9 nM
C=CC(=O)Nc1cc(Nc2ncc(C(=O)OC(C)C)c(N3CC(C)(C)c4nc(N5CCC5)ccc43)n2)c(OC)cc1N(C)CCN(C)C [Example 38, isopropyl 2-((5-acrylamido-4-((2-(dimethylami-no)ethyl)(methyl)amino)-2-methoxy-phenyl)amino)-4-(5-(azetidin-1-yl)-3,3-dimethyl-2,3-dihydro-1H-pyrrolo[3,2-b]pyridin-1-yl)pyrimidine-5-carboxylate] | 339 nM
C=CC(=O)Nc1cc(Nc2ncc(C(=O)OC(C)C)c(N3CC(C)(C)c4nc(C)ccc43)n2)c(OC)cc1N1CCN(C2CC2)CC1 [Example 39, isopropyl 2-((5-acrylamido-4-(4-cyclopropyl-piperazin-1-yl)-2-methoxy-phenyl)amino)-4-(3,3,5-trimethyl-2,3-dihydro-1H-pyrrolo[3,2-b]pyridin-1-yl)pyrimidine-5-carboxylate] | 545 nM
C=CC(=O)Nc1cc(Nc2ncc(C(=O)OC(C)C)c(N3CC(C)(C)c4nc(C)ccc43)n2)c(OC)nc1N1CCC[C@H]1CN(C)C [Example 43, isopropyl (S)-2-((5-acrylamido-6-(2-((dimethyl-amino)methyl)pyrrolidin-1-yl)-2-meth-oxypyridin-3-yl)amino)-4-(3,3,5-tri-methyl-2,3-dihydro-1H-pyrrolo[3,2-b]pyridin-1-yl)pyrimidine-5-carboxylate] | 453 nM
C=CC(=O)Nc1cc(Nc2ncc(C(=O)OC(C)C)c(N3CC(C)(C)c4nc(C)ccc43)n2)c(OC)cc1N(CC)CCN(C)C [Example 45, isopropyl 2-((5-acrylamido-4-((2-(dimethylami-no)ethyl)(ethyl)amino)-2-methoxy-phenyl)amino)-4-(3,3,5-trimethyl-2,3-dihydro-1H-pyrrolo[3,2-b]pyridin-1-yl)pyrimidine-5-carboxylate] | 76.2 nM
C=CC(=O)Nc1cc(Nc2ncc(C(=O)OC(C)C)c(N3CC4(CC4)c4nc(C)ccc43)n2)c(OC)cc1N1CCC[C@H]1CN(C)C [Example 51, isopropyl (S)-2-((5-acrylamido-4-(2-((dimethyl-amino)methyl)pyrrolidin-1-yl)-2-meth-oxyphenyl)amino)-4-(5′-methyl-spiro(cyclopropane-1,3′-pyrrolo[3,2-b]pyridin)-1′(2′H)-yl)pyrimidine-5-carboxylate] | 199 nM
